Values of other authors as cited in patent US12447174B2, “Microdaily EMF protects against oxidative and inflammatory damage, and acute and late adverse effects of EMF radiation” (priority 2021, dated 2025).
“Also recorded” adds a separate entry of the source.

Key:
[1] = system: microglia cells in culture
[2] = system: male heavy smokers; conditions: beta-carotene alone
[3] = system: hippocampus and cerebellum of rats; conditions: RF-EMF 900 MHz 60 min/day for 21 days
[4] = system: rats exposed to 900 MHz radiation; conditions: compared to EMF irradiated animals not receiving luteolin
[5] = system: hippocampus of rats; conditions: prenatal exposure to 900 MHz EMF radiation
[6] = system: kidney of rats; conditions: 900 MHz
[7] = system: N9 microglia cells; conditions: N9 microglia cells in culture
[8] = system: workers chronically exposed to ELF-EMF radiation from high voltage electricity
[9] = system: Human embryonic kidney cells (HEK293); conditions: HEK293, 2.4 GHz for 1 h, treatment before exposure
[10] = system: patients with Alzheimer's disease
[11] = system: heart disease; conditions: humans
[12] = system: porcine blood platelets; conditions: 1 KHz, 220 V/m, 30 and 60 minutes
[13] = system: rats; conditions: EMF radiation emitted from mobile phones, supplementation

COc1cc(/C=C/C(=O)CC(=O)/C=C/c2ccc(O)c(OC)c2)ccc1O [Curcumin]
EMF-induced elevation of pro-inflammatory cytokines [1]: prevented
EMF-induced reduced phagocytic activity [1]: prevented

CC1=C(/C=C/C(C)=C/C=C/C(C)=C/C=C/C=C(C)/C=C/C=C(C)/C=C/C2=C(C)CCCC2(C)C)C(C)(C)CCC1 [beta-carotene]
risk of lung cancer [2]: increased the risk of lung cancer

Nc1nc2ncc(CNc3ccc(C(=O)N[C@@H](CCC(=O)O)C(=O)O)cc3)nc2c(=O)[nH]1 [folic acid]
reduction in pyramidal and granular cells in hippocampus and dentate gyres and Purkinje cell number in cerebellum [3]: decreased these changes

O=c1cc(-c2ccc(O)c(O)c2)oc2cc(O)cc(O)c12 [luteolin]
numbers of Leydig cells, primary spermatocytes, and spermatids [4]: enhanced the number of these cells

COc1ccc2[nH]cc(CCNC(C)=O)c2c1 [melatonin]
EMF radiation-induced neuronal damage in the hippocampus [5]: prevented EMF radiation-induced neuronal damage
EMF radiation induced oxidative damage in the kidney [6]: prevented

CC(C)(C)c1nc2c3cc[nH]c(=O)c3c3cc(F)ccc3c2[nH]1 [pyridone 6]
EMF radiation induced inflammatory responses [7]: suppressed EMF radiation induced inflammatory responses

Oc1ccc(C=Cc2cc(O)cc(O)c2)cc1 [resveratrol]
increased oxidative stress (damage) from ELF-EMF radiation [8]: reduced this damage

[Se] [selenium]
EMF radiation-induced biochemical changes (MDA, SOD, glutathione peroxidase, apoptosis, caspase-3, Bcl2) [9]: reduced such EMF radiation-induced biochemical changes

Vitamin E
rate of decline in cognitive function ([10]; early phase of Alzheimer's disease): reduced the rate of decline in cognitive function
treatment effect in Alzheimer's disease ([10]; patients with Alzheimer's disease): ineffective
effect in heart disease on primary and most secondary outcomes [11]: ineffective

omega-3-fatty acids
EMF radiation-induced neuronal damage in the hippocampus [5]: prevented EMF radiation-induced neuronal damage

vitamin A
EMF-induced increase in malondialdehyde (MDA) levels [12]: significantly attenuated such changes; also recorded: significantly attenuated this damage

vitamin D
EMF radiation impaired immune function [13]: mitigated
